PubChem BioAssay AID2060906 (Molecular Pharmacology Branch, DTP, NCI, 2025)

System: 485176-168-R4-J1-PDC complex spheroid growth
Test: Anticancer human tumor 485176-168-R4-J1-PDC patient-derived pancreatic adenocarcinoma cell line growth inhibition [RAS]
Settings: for IC50: curve of first compound; for viability, T/C: stronger effect = lower value; active = viability on the fitted dose curve at most 10% of control; inactive = the rest
Method in brief: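 Agents were tested in combination matrices in half-log decrements from a top concentration at or near clinical Cmax (10 microM if undetermined). Targets were multi-cell spheroids of tumour lines plus HUVEC and MSC stromal cells.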
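Note: spheroids exposed to compounds for seven days before readout.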
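Throughout, for viability, T/C: luminescence viability expressed relative to DMSO vehicle wells set as 100%.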

CC(C)NCC(C(=O)N1CCN(c2ncnc3c2C(C)CC3O)CC1)c1ccc(Cl)cc1 (configuration not stated) + CCn1c(-c2cc(N3CCN(C)CC3)cnc2C(C)OC)c2c3cc(ccc31)-c1csc(n1)CC(NC(=O)C1CC1C)C(=O)N1CCCC(N1)C(=O)OCC(C)(C)C2
1.65 µM: IC50 (second compound 0.00949 µM)
inactive: viability, T/C (second compound 0.000949 µM, first compound 0.0316 µM) 116% | viability, T/C (second compound 0.000949 µM, first compound 0.1 µM) 99.5% | viability, T/C (second compound 0.000949 µM, first compound 0.316 µM) 78.7% | viability, T/C (second compound 0.000949 µM, first compound 1 µM) 64.8% | viability, T/C (second compound 0.000949 µM, first compound 3.16 µM) 43.6% | viability, T/C (second compound 0.000949 µM, first compound 10 µM) 33% | viability, T/C (second compound 0.003 µM, first compound 0.0316 µM) 82.2% | viability, T/C (second compound 0.003 µM, first compound 0.1 µM) 101% | viability, T/C (second compound 0.003 µM, first compound 0.316 µM) 74.3% | viability, T/C (second compound 0.003 µM, first compound 1 µM) 65% | viability, T/C (second compound 0.003 µM, first compound 3.16 µM) 55.1% | viability, T/C (second compound 0.003 µM, first compound 10 µM) 38.8% | viability, T/C (second compound 0.00949 µM, first compound 0.0316 µM) 97.9% | viability, T/C (second compound 0.00949 µM, first compound 0.1 µM) 79.7% | viability, T/C (second compound 0.00949 µM, first compound 0.316 µM) 82.4% | viability, T/C (second compound 0.00949 µM, first compound 1 µM) 56.8% | viability, T/C (second compound 0.00949 µM, first compound 3.16 µM) 38.7% | viability, T/C (second compound 0.00949 µM, first compound 10 µM) 32.3% | viability, T/C (second compound 0.03 µM, first compound 0.0316 µM) 94.7% | viability, T/C (second compound 0.03 µM, first compound 0.1 µM) 73.8% | viability, T/C (second compound 0.03 µM, first compound 0.316 µM) 81.2% | viability, T/C (second compound 0.03 µM, first compound 1 µM) 44.4% | viability, T/C (second compound 0.03 µM, first compound 3.16 µM) 40.5% | viability, T/C (second compound 0.03 µM, first compound 10 µM) 31.7% | viability, T/C (second compound 0.0949 µM, first compound 0.0316 µM) 81.3% | viability, T/C (second compound 0.0949 µM, first compound 0.1 µM) 67.9% | viability, T/C (second compound 0.0949 µM, first compound 0.316 µM) 70.3% | viability, T/C (second compound 0.0949 µM, first compound 1 µM) 41.3% | viability, T/C (second compound 0.0949 µM, first compound 3.16 µM) 35.5% | viability, T/C (second compound 0.0949 µM, first compound 10 µM) 26.8% | viability, T/C (second compound 0.3 µM, first compound 0.0316 µM) 72.2% | viability, T/C (second compound 0.3 µM, first compound 0.1 µM) 72.1% | viability, T/C (second compound 0.3 µM, first compound 0.316 µM) 57.5% | viability, T/C (second compound 0.3 µM, first compound 1 µM) 46.4% | viability, T/C (second compound 0.3 µM, first compound 3.16 µM) 38.4% | viability, T/C (second compound 0.3 µM, first compound 10 µM) 26.8%
0.847 µM: IC50 (second compound 0.03 µM)
0.79 µM: IC50 (second compound 0.3 µM)
2.33 µM: IC50 (second compound 0.000949 µM)
3.71 µM: IC50 (second compound 0.003 µM)
0.721 µM: IC50 (second compound 0.0949 µM)
